In experiment [1] the test system is p-ERK pathway in H358 cells. The experiment can be described thus: p-ERK pathway inhibition in H358 cells (Advanced phospho-ERK (Thr202/Tyr204) cellular kit, HTRF). The settings on record: Homo sapiens, NCI-H358, 1 h compound incubation. The experiment is classed as cell-based. Summed up: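 Serum-starved H358 cells (50000/well, overnight) treated with compound for 1 h at 37 °C, then lysed; phospho-ERK (Thr202/Tyr204) read by HTRF (665/620 nm ratio). Cell-free wells set 100% inhibition, untreated cells 0%; IC50 fitted from 8 concentrations by four-parameter curve.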
A general note: TR-FRET usually uses a lanthanide donor and a delayed reading to cut background.

Experiment [2] addresses T1, CYP2C9 (Homo sapiens, UniProt P11712).
T1 construct: Human liver microsome (Corning 452117); tissue Corning 452117; host or cells: human liver microsomes
The experiment in a line: CYP2C9 enzymatic activity inhibition in human liver microsomes. The experiment is classed as in vitro ADME. As to conditions: IC50, human liver microsome, substrate diclofenac. Here is the method:
The inhibition of CYP2C9, CYP2D6, and CYP3A4 enzymatic activity by the compound of the present invention was determined using the following method. • I. Experimental materials and instruments • 1. Human liver microsome (Corning 452117) • 2. Na2HPO4 (Sigma SLBZ6180) • 3. KH2PO4 (Sigma SLBT6559) • 4. NADPH (Solarbio 705Y021) • […] • 6. Positive substrates diclofenac (Sigma SLBV3438), dextromethorphan (TRC 3-EDO-175-1), and midazolam (Cerilliant FE01161704) • 7. Positive inhibitors sulfaphenazole (D. Ehrenstorfer GmbH 109012), quinidine (TCI WEODL-RE), and ketoconazole (Sigma 100M1091V) • 7. AB Sciex Triple Quad 5500 liquid chromatography-mass spectrometry system • II. Procedures • 1. Preparation of 100 mM phosphate-buffered saline (PBS): 7.098 g Na2HPO4 was weighed. 500 mL pure water was added. The mixture was dissolved by sonication to give solution A. 3.400 g KH2PO4 was weighed. 250 mL pure water was added. The mixture was dissolved by sonication to give solution B. The solution A was placed in a stirrer, and the solution B was slowly added until the pH reached 7.4 to prepare the 100 mM PBS buffer. • 2. A 10 mM NADPH solution was prepared with a 100 mM PBS buffer. A 10 mM stock solution of the compound of the present invention was diluted with DMSO to give a compound working solution at a concentration of 200× (6000, 2000, 600, 200, 60, 20, and 0 µM). The positive inhibitor stock solution was diluted with DMSO to give a positive inhibitor working solution at a concentration of 200× (sulfaphenazole, 1000, 300, 100, 30, 10, 3, and 0 µM; quinidine/ketoconazole, 100, 30, 10, 3, 1, 0.3, and 0 µM). Substrate working solutions (120 µM diclofenac, 400 µM dextromethorphan, and 200 µM midazolam) at a concentration of 200× were prepared with water, acetonitrile, or acetonitrile/methanol. • 3. […]
The values were calculated by Excel XLfit 5.3.1.3 to obtain IC50 values for the compounds of the present invention against CYP2C9, CYP2D6, and CYP3A4 as shown in Table 8. […]
Background: Liver microsomes are vesicles of endoplasmic reticulum, rich in cytochrome P450 enzymes.

pIC50: −log10 of the molar value. Bounds are passed on as bounds.

T1 sequence (P11712 whole entry): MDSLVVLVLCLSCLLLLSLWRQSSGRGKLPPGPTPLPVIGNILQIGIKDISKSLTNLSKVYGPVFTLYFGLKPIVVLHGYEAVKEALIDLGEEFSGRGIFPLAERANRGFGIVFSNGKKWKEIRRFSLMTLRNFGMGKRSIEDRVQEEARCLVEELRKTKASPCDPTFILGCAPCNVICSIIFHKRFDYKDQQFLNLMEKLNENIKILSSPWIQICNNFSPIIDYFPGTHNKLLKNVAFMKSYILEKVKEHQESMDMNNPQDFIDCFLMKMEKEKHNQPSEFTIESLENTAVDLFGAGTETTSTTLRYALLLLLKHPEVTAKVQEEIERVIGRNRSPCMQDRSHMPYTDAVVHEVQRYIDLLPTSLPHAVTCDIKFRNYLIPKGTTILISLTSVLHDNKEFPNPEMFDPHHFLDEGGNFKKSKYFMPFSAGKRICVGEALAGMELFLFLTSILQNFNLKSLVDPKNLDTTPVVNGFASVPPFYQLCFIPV

Take `[2H][C@](C)(Nc1nc(C)nc2c(N3CCOCC3)c(=O)n(C3(CF)CC3)cc12)c1cccc(C(F)F)c1F` [Example 55, (R)-4-((1-(3-(difluoromethyl)-2-fluorophenyl)ethyl-1-d)amino)-6-(1-(fluoromethyl)cyclopropyl)-2-methyl-8-morpholinylpyrido[4,3-d]pyrimidine-7(6H)-one]: the negative logarithm of the IC50 (pIC50) (usually −log10 of the IC50, conventionally taken in molar units) in experiment [1] was 7.52; in experiment [2] it was < 4.52.

Regarding `Cc1nc(N[C@H](C)c2cccc(C(F)F)c2F)c2cn(C3(CF)CC3)c(=O)c(N3CCOC[C@@H]3C)c2n1` [Example 40, 4-(((R)-1-(3-(difluoromethyl)-2-fluorophenyl)ethyl)amino)-6-(1-(fluoromethyl)cyclopropyl)-2-methyl-8-((S)-3-methylmorpholine)pyrido[4,3-d]pyrimidine-7(6H)-one], the pIC50 in experiment [1] was 7.70; in experiment [2], < 4.52.

In turn, `Cc1nc(N[C@H](C)c2cccc(C(F)F)c2F)c2cn(C3(CF)CC3)c(=O)c(N3CCOCC3)c2n1` [Example 34, (R)-4-((1-(3-(difluoromethyl)-2-fluorophenyl)ethyl)amino)-6-(1-(fluoromethyl)cyclopropyl)-2-methyl-8-morpholinylpyrido[4,3-d]pyrimidine-7(6H)-one] gave a negative logarithm of the IC50 (pIC50) in experiment [1] of 8.04.

For `COc1c(=O)n(N2CCOCC2)cc2c(N[C@H](C)c3cccc(C(F)F)c3F)nc(C)nc12` [Example 20, (R)-4-((1-(3-(difluoromethyl)-2-fluorophenyl)ethyl)amino)-8-methoxy-2-methyl-6-morpholinepyrido[4,3-d]pyrimidine-7(6H)-one], the negative logarithm of the IC50 (pIC50) in experiment [1] was 7.38.

In the case of `[2H]C([2H])([2H])Oc1c(=O)n(C2(CF)CC2)cc2c(N[C@H](C)c3cccc(C(F)F)c3F)nc(C)nc12` [Example 23, (R)-4-((1-(3-(difluoromethyl)-2-fluorophenyl)ethyl)amino)-6-(1-(fluoromethyl)cyclopropyl)-8-(methoxy-d3)-2-methylpyrido[4,3-d]pyrimidine-7(6H)-one], the results for the pIC50 in experiment [1] and in experiment [2] were 7.35 and < 4.52, respectively.

Source of the values: EP4417607A1, “HETEROCYCLIC COMPOUND AS SOS1 INHIBITOR AND USES THEREOF” (Nanjing Zaiming Pharmaceutical Co., Ltd., priority 2021, dated 2023).
